In brackets after ≈: the same amount, converted by molar mass. Non-standard residues stand in square brackets, D forms with d. Residues, ends and D or L forms follow the SMILES beside them. No end group written: not given here. pS = N[C@@H](COP(=O)(O)O)C(=O)O
Columns and labels:
[1] = tested on: C. auris; assay: EUCAST EDef 7.3.1 MIC and checkerboard microdilution; type: cell-based, Candida auris
Method: Methods: We studied 22 C. auris isolates obtained from different clinical samples from the Hospital La Fe, Valencia, Spain (eight from blood culture, seven from oropharynx and seven from urine cultures). Candida parapsilosis ATCC 22019 and Candida krusei ATCC 6258 were used as quality controls. The minimum inhibitory concentration (MIC) was determined according to the European Committee on Antibiotic Susceptibility Testing (EUCAST) EDef 7.3.1 document. The interaction between citral and the rest of antifungal drugs was assessed by a checkerboard microdilution method. […] The in vitro interaction of the drug combinations was interpreted in terms of the fractional inhibitory concentration index (FICI) as follows: FICI < 1, synergistic; FICI equal to 1, additive; and FICI > 1, indifferent or antagonistic.

[2] = tested on: C. krusei ATCC 6558; assay: Broth microdilution of modified HDPs; type: cell-based, Candida krusei; conditions: 0.19 to 50 μg/mL tested
From the text: (§1) Materials & Methods: From the Scarabaeidae family transcriptome, 14 promising HDPs were identified. Subsequently, we designed new sequences modifying the net charge, hydrophobic angle and the general composition of amino acids, among other properties, in order to improve the HDPs antifungal activity. The in vitro antifungal susceptibility of the 14 modified HDPs against Candida krusei, ATCC 6558, Candida parapsilosis ATCC 22019, Candida glabrata ATCC 2001, Candida tropicalis ATCC 750, Cryptococcus neoformans H99 and Cryptococcus gattii H0058-I-2029 isolates were evaluated by broth microdilution, with a concentration ranging from 0.19 to 50 μg/mL for all peptides.

[3] = tested on: C. parapsilosis ATCC 22019; assay: Broth microdilution of modified HDPs; type: cell-based, Candida parapsilosis; conditions: 0.19 to 50 μg/mL tested
From the text: as §1

[4] = tested on: C. albicans SC5314; assay: Broth microdilution of modified HDPs; type: cell-based, Candida albicans; conditions: 0.19 to 50 μg/mL tested
[5] = tested on: C. tropicalis ATCC 750; assay: Broth microdilution of modified HDPs; type: cell-based, Candida tropicalis; conditions: 0.19 to 50 μg/mL tested
From the text: as §1

[6] = tested on: C. albicans ATCC 1453; assay: Broth microdilution of modified HDPs; type: cell-based, Candida albicans; conditions: 0.19 to 50 μg/mL tested
[7] = tested on: C. glabrata ATCC 2001; assay: Broth microdilution of modified HDPs; type: cell-based, Candida glabrata; conditions: 0.19 to 50 μg/mL tested
From the text: as §1

[8] = tested on: C. neoformans H99; assay: Broth microdilution of modified HDPs; type: cell-based, Cryptococcus neoformans; conditions: 0.19 to 50 μg/mL tested
From the text: as §1

[9] = tested on: C. gattii H0058-I-2029; assay: Broth microdilution of modified HDPs; type: cell-based, Cryptococcus gattii; conditions: 0.19 to 50 μg/mL tested
From the text: as §1

[10] = tested on: C. auris; assay: CLSI M27-A3 broth microdilution; type: cell-based, Candida auris; conditions: for GM MIC (≥90% reduction of visible growth): 256–16 μg/mL tested, duplicate at two times
[11] = tested on: nine strains of Candida spp.; assay: CLSI M27-A3 broth microdilution; type: cell-based
[12] = tested on: P. insidiosum (strains CBS101555, P38, ATCC90586); assay: Radial growth assay; type: cell-based, Pythium insidiosum; conditions: for reduction of growth compared to the control: colony radial growth; for MIC: Pythium insidiosum
Method: These agriculture fungicides were initially evaluated for inhibitory effect against 3 phylogenetical distinct strains of P. insidiosum (i.e., strains CBS101555, P38, and ATCC90586) isolated from humans and animal with pythiosis in Thailand, Brazil, and United States. A radial growth assay was employed for the in vitro susceptibility analysis. […] The percentage of the colony’s radial growth of the treated organism was calculated in relation to the untreated control. The microscopic changes of the microorganisms were recorded.

Compound | MIC [2] | MIC [3] | MIC [4] | MIC [5] | MIC [6] | MIC [7] | MIC [8] | MIC [9] | further results
CC(C)=CCCC(C)=CC=O (mixture of isomers) [citral] |  |  |  |  |  |  |  |  | MIC of citral in combination with anidulafungin ([1]; 21 of the 22 isolates): 3 to 128 µg/mL; MIC ([1]; Candidozyma auris, 22 clinical isolates): > 1020 µg/mL; isolates with additive effect (FICI equal to 1) ([1]; citral + fluconazole): eight; isolates with synergistic effect (FICI < 1) ([1]; citral + fluconazole): three; isolates with additive effect (FICI equal to 1) ([1]; citral + isavuconazole): seven; isolates with synergistic effect (FICI < 1) ([1]; citral + isavuconazole): seven
CC[C@H](C)[C@H](NC(=O)[C@H](CCCCN)NC(=O)[C@H](CCCCN)NC(=O)[C@@H](NC(=O)[C@H](CCCNC(=N)N)NC(=O)[C@H](CCCCN)NC(=O)[C@H](CCC(=O)O)NC(=O)[C@H](Cc1ccccc1)NC(=O)[C@H](CCCCN)NC(=O)[C@H](CCCNC(=N)N)NC(=O)[C@H](Cc1c[nH]c2ccccc12)NC(=O)[C@H](CCCNC(=N)N)NC(=O)[C@H](CCCCN)NC(=O)[C@H](COP(=O)(O)O)NC(=O)[C@@H](N)CCCCN)C(C)C)C(=O)N[C@@H](Cc1ccccc1)C(=O)N[C@@H](CCC(=O)O)C(=O)N[C@@H](CCCCN)C(=O)N[C@H](C(=O)N[C@@H](CCCCN)C(=O)N[C@@H](CCC(=O)O)C(=O)N[C@@H](C)C(=O)N[C@@H](CCCCN)C(N)=O)[C@@H](C)O [Act2.1] (H-K[pS]KRWRKFEKRVKKIFEKTKEAK-NH2) | 0.78 µg/mL (≈ 0.255 µM) | 1.56 µg/mL (≈ 0.51 µM) | >50 µg/mL | >50 µg/mL | >50 µg/mL | 1.56 µg/mL (≈ 0.51 µM) | >50 µg/mL | 1.56 µg/mL (≈ 0.51 µM) | 
C=C(C)[C@H]1CC=C(C)CC1 [D-limonene] |  |  |  |  |  |  |  |  | MICs range [10]: 16 to 128 µg/mL; GM MIC (≥90% reduction of visible growth) [10]: 20.39 µg/mL; selectivity index (SI) ([11]; C. glabrata LMDM 34 vs HaCat): 6; selectivity index (SI) ([11]; C. methapsilosis MUM 1512 vs HaCat): 50; selectivity index (SI) ([11]; C. orthopsilosis MUM 1713 vs HaCat): 25; selectivity index (SI) ([11]; C. tropicalis ATCC 200956 vs HaCat): 12
O=C(NCc1ncc(C(F)(F)F)cc1Cl)c1c(Cl)cccc1Cl [Fluopicolide, fluopicolide] |  |  |  |  |  |  |  |  | reduction of growth compared to the control [12]: at least 70%; MICs ([12]; tested at 0.25–[…], 3 biological replicates): 8 µg/mL
Cc1ccc(C(C)C)cc1O [carvacrol] |  |  |  |  |  |  |  |  | GM MIC (≥90% reduction of visible growth) [10]: 215.3 µg/mL
Cc1ccc(-c2c(Cl)nc(C#N)n2S(=O)(=O)N(C)C)cc1 [cyazofamid] |  |  |  |  |  |  |  |  | MIC [12]: 16 µg/mL (≈ 49.3 µM); reduction of growth compared to the control [12]: at least 70%
COc1ccc(C(=CC(=O)N2CCOCC2)c2ccc(Cl)cc2)cc1OC [dimethomorph] |  |  |  |  |  |  |  |  | inhibition [12]: no significant inhibition
CSC1=N[C@@](C)(c2ccccc2)C(=O)N1Nc1ccccc1 [fenamidone] |  |  |  |  |  |  |  |  | MIC [12]: 64 µg/mL (≈ 206 µM); reduction of growth compared to the control [12]: at least 70%
Cc1cc(C(F)(F)F)nn1CC(=O)N1CCC(c2nc(C3=NOC(c4c(F)cccc4F)C3)cs2)CC1 (stereo not drawn) [oxathiapiprolin] |  |  |  |  |  |  |  |  | inhibition [12]: no significant inhibition
Cc1ccc(C(C)C)cc1 [p-cymene] |  |  |  |  |  |  |  |  | GM MIC (≥90% reduction of visible growth) [10]: 215.3 µg/mL
Cc1ccc(C(C)C)c(O)c1 [thymol] |  |  |  |  |  |  |  |  | GM MIC (≥90% reduction of visible growth) [10]: 104 µg/mL
GSKRWRKFEKRVKK-NH2 [domcec] | 3.12 µg/mL | 3.12 µg/mL | >50 µg/mL | >50 µg/mL | >50 µg/mL | 6.25 µg/mL | >50 µg/mL | >50 µg/mL | 
GSKRWRKFEKRVKKIFEETKEALPVVQGVAGVAGAVGRR-NH2 [ConCec] | 0.78 µg/mL | 0.39 µg/mL | >50 µg/mL | 25 µg/mL | >50 µg/mL | 1.56 µg/mL | 25 µg/mL | 1.56 µg/mL | 
GSKRWRKFEKRVKKIFEHTKEA-NH2 [Act7] | 0.78 µg/mL | 1.56 µg/mL | >50 µg/mL | >50 µg/mL | >50 µg/mL | 3.12 µg/mL | 50 µg/mL | 3.12 µg/mL | 
GSKRWRKFEKRVKKIFEHTKEAK-NH2 [Act8] | 0.78 µg/mL | 1.56 µg/mL | >50 µg/mL | >50 µg/mL | >50 µg/mL | 3.12 µg/mL | 50 µg/mL | 3.12 µg/mL | 
GSKRWRKFEKRVKKIFEKTKEA-NH2 [Act5] | 1.56 µg/mL | 3.12 µg/mL | 25 to 50 µg/mL | >50 µg/mL | >50 µg/mL | 3.12 µg/mL | 25 µg/mL | 1.56 µg/mL | 
GSKRWRKFEKRVKKIFEKTKEAK-NH2 [Act6] | 0.78 µg/mL | 1.56 µg/mL | >50 µg/mL | >50 µg/mL | >50 µg/mL | 3.12 µg/mL | 50 µg/mL | 3.12 µg/mL | 
GSKRWRKFEKRVKKVFEHTKEA-NH2 [ox322] | 1.56 µg/mL | 1.56 µg/mL | >50 µg/mL | >50 µg/mL | >50 µg/mL | 3.12 µg/mL | 50 µg/mL | 3.12 µg/mL | 
KSKRWRKFEKRVKKIFEHTKEA-NH2 [Act3] | 0.78 µg/mL | 3.12 µg/mL | >50 µg/mL | >50 µg/mL | >50 µg/mL | 1.56 µg/mL | 50 µg/mL | 3.12 µg/mL | 
KSKRWRKFEKRVKKIFEHTKEAK-NH2 [Act4] | 0.78 µg/mL | 1.56 µg/mL | >50 µg/mL | 50 µg/mL | >50 µg/mL | 3.12 µg/mL | 50 µg/mL | 1.56 µg/mL | 
KSKRWRKFEKRVKKIFEKFKEAK-NH2 [Act2.2] | 0.78 µg/mL | 1.56 µg/mL | >50 µg/mL | 12.5 µg/mL | >50 µg/mL | 1.56 µg/mL | 12.5 µg/mL | 1.56 µg/mL | 
KSKRWRKFEKRVKKIFEKTKEA-NH2 [Act1] | 1.56 µg/mL | 3.12 µg/mL | >50 µg/mL | 50 µg/mL | >50 µg/mL | 3.12 µg/mL | 50 µg/mL | 6.25 µg/mL | 
KSKRWRKFEKRVKKIFEKTKEAK-NH2 [Act2] | 0.78 µg/mL | 1.56 µg/mL | >50 µg/mL | 50 µg/mL | >50 µg/mL | 1.56 µg/mL | 25 µg/mL | 3.12 µg/mL | 
RSKKWRKIEKRVKKIFEKTKEA-NH2 [sat122] | 1.56 µg/mL | 0.39 µg/mL | >50 µg/mL | 50 µg/mL | >50 µg/mL | 3.12 µg/mL | 50 µg/mL | 3.12 µg/mL | 

— PMC8624133, “10th Trends in Medical Mycology Held on 8 to 11 October 2021, Aberdeen, Scotland, Organized by the European Confederation of Medical Mycology (ECMM)” (Journal of Fungi, 2021)
